Data: article PMC9561414 (2022)

Legend:
Assay in all cases: RelE cleavage translation initiation assay (PAGE)
[1] = test system: Vvu add U61C (RNA, riboswitch) GCUUCAUAUAAUCCUAAUGAUAUGGUUUGGGAGUUUCUACCAAGAGCCUUAAACUCUUGACUAUGAAGUCUGUCGCUUUAUCCGAAAUUUUAUAAAGAGAAGACUCAUGUAGAAUUACUUUGACCUGCCG; conditions: 30 mM K+ (KCl), 7 mM Mg2+, 70 mM NH4Cl, 50 mM HEPES-KOH pH 7.5, 37 °C, 70S ribosomes, IFs
[2] = test system: Pae Gdm WT (RNA, riboswitch) GGUUUCAGCCGGAAGCGGGACGACCCGUUUUCCCUCUUUCAUUGCGCGGGGACGACCCUGCAGAGAGGCUGAAAAUGUAGUGGAUCUAUCUCUUGCUCGUA; conditions: 30 mM K+ (KCl), 7 mM Mg2+, 70 mM NH4Cl, 50 mM HEPES-KOH pH 7.5, 37 °C, 70S ribosomes, IFs
[3] = test system: Vvu add (WT) (RNA, riboswitch) GCUUCAUAUAAUCCUAAUGAUAUGGUUUGGGAGUUUCUACCAAGAGCCUUAAACUCUUGAUUAUGAAGUCUGUCGCUUUAUCCGAAAUUUUAUAAAGAGAAGACUCAUGUAGAAUUACUUUGACCUGCCG; conditions: 30 mM K+ (KCl), 7 mM Mg2+, 70 mM NH4Cl; 50 mM HEPES-KOH pH 7.5, 37 °C, 70S ribosomes, IFs; apparent
[4] = test system: Pae Gdm OFF (RNA, riboswitch) GGUUUCAGCCGGAAGCGGGAAAACCCGUUUUCCCUCUUUCAUUGCGCGGGGACGACCCUGCAGAGAGGCUGAAAAUGUAGUGGAUCUAUCUCUUGCUCGUA; conditions: 30 mM K+ (KCl), 7 mM Mg2+, 70 mM NH4Cl; 50 mM HEPES-KOH pH 7.5, 37 °C, 70S ribosomes, IFs; no response up to 25 mM guanidine

Nc1nc2[nH]cnc2c(=O)[nH]1 showed a K1/2 ([1]; apparent) of 87 ± 3 nM.
With NC(N)=O the binding ([2]; no modulation at 50 mM urea) was “no”.
With Nc1ncnc2[nH]cnc12 the K1/2 [3] was 1.4 ± 0.7 µM and the binding ([1]; no response up to 500 μM adenine) was “no”.
In the case of N=C(N)N, the binding [4] is reported as “no” and the K1/2 ([2]; apparent, Hill 1.5 ± 0.2) is reported as 2.2 ± 0.2 mM.
